pIC50: −log10 of the molar value. Active and inactive are the calls of the source. No cut-off for these calls is given here.
Tests used:
MCF7 = assay: Cytotoxicity against human MCF7 cells assessed as reduction in cell viability after 72 hrs by MTT assay; format: functional, cell-based; conditions: for pIC50: MCF7, 72 h
MDA-MB-231 = assay: Cytotoxicity against human MDA-MB-231 cells assessed as reduction in cell viability after 72 hrs by MTT assay; format: functional, cell-based; conditions: for pIC50: MDA-MB-231, 72 h

Q: With `COc1cc(C(=O)/C=C/c2ccc(Cl)c(Cl)c2)cc(OC)c1OC` as the compound, how does the pIC50 (MCF7) read?
A: 5.15

Q: What about the pIC50 (MDA-MB-231) of the same compound?
A: < 5.00

Q: With `COc1ccc(/C=C/C(=O)c2cc(OC)c(OC)c(OC)c2)cc1` as the compound, how does the pIC50 (MCF7) read?
A: 6.15

Q: What about the pIC50 (MDA-MB-231) of the same compound?
A: 5.19

Q: `O=C(CCc1ccc(O)cc1)c1c(O)cc(O)cc1O` [PHLORETIN] was tested. Which pIC50 (MCF7) did it give?
A: < 5.00

Q: And the pIC50 (MDA-MB-231)?
A: < 5.00

Q: Which results are given for `COc1ccc(/C=C/C(=O)c2ccc(OC)cc2OC)cc1` [METOCHALCONE]?
A: pIC50 (MCF7): 5.82; pIC50 (MDA-MB-231): 5.10

Q: Which results are given for `COc1cc(/C=C/C(=O)c2ccc(OC)c(OC)c2OC)cc(OC)c1OC`?
A: pIC50 (MCF7): < 5.00; pIC50 (MDA-MB-231): 5.13

Q: With `COc1ccc2c(c1)OC(c1ccccc1)CC2=O` (stereo not given) as the compound, how does the Activity (MCF7) read?
A: inactive

Q: What about the Activity (MDA-MB-231) of the same compound?
A: inactive

Q: With `O=C(/C=C/c1ccc(O)cc1)c1ccc(O)c(O)c1O` as the compound, how does the pIC50 (MCF7) read?
A: < 5.00

Q: What about the pIC50 (MDA-MB-231) of the same compound?
A: < 5.00

Q: Which results are given for `COc1ccc(C(=O)CCc2ccccc2)c(O)c1`?
A: pIC50 (MCF7): < 5.00; pIC50 (MDA-MB-231): < 5.00

Q: With `O=C(/C=C/c1ccc(O)cc1)c1cc(Cc2c(O)ccc(C(=O)/C=C/c3ccc(O)cc3)c2O)c(O)cc1O` as the compound, how does the pIC50 (MCF7) read?
A: < 5.00

Q: And the pIC50 (MDA-MB-231)?
A: < 5.00

Q: What does the source list for `O=C(/C=C/c1ccccc1)c1ccc(O)cc1O` [2',4'-DIHYDROXYCHALCONE]?
A: pIC50 (MCF7): < 5.00; pIC50 (MDA-MB-231): < 5.00

Q: How did the pIC50 (MCF7) turn out when `O=C(/C=C/c1ccc(O)cc1)c1ccc(O)cc1O` [ISOLIQUIRITIGENIN] was run?
A: < 5.00

Q: What about the pIC50 (MDA-MB-231) of the same compound?
A: < 5.00

Q: Which results are given for `O=C(/C=C/c1ccc(O)cc1)c1ccc(O)cc1` [4,4'-DIHYDROXYCHALCONE]?
A: pIC50 (MCF7): < 5.00; pIC50 (MDA-MB-231): < 5.00

Q: `O=C(/C=C/c1ccc(O)cc1)c1c(O)cc(O)cc1O` [4,2',4',6'-TETRAHYDROXYCHALCONE] was tested. Which pIC50 (MCF7) did it give?
A: < 5.00

Q: And the pIC50 (MDA-MB-231)?
A: < 5.00

Q: With `O=C1CC(c2ccc(O)cc2)Oc2cc(O)cc(O)c21` (stereo not given) as the compound, how does the Activity (MCF7) read?
A: inactive

Q: And the Activity (MDA-MB-231)?
A: inactive

Q: With `CC(=O)O[C@H]1C(=O)[C@@]2(C)[C@H]([C@H](OC(=O)c3ccccc3)[C@]3(O)C[C@H](OC(=O)[C@H](O)[C@@H](NC(=O)c4ccccc4)c4ccccc4)C(C)=C1C3(C)C)[C@]1(OC(C)=O)CO[C@@H]1C[C@@H]2O` [PACLITAXEL] as the compound, how does the pIC50 (MDA-MB-231) read?
A: 8.41

Q: How did the pIC50 (MCF7) turn out when `COc1ccc(C(=O)/C=C/c2ccc(O)c(OC)c2)c(OC)c1` was run?
A: 5.51

Q: And the pIC50 (MDA-MB-231)?
A: < 5.00

Q: Which results are given for `O=C(CCc1ccc(O)cc1)c1ccc(O)cc1O` [DAVIDIGENIN]?
A: pIC50 (MCF7): < 5.00; pIC50 (MDA-MB-231): < 5.00

Q: `O=C(/C=C/c1ccc(O)cc1)c1cc(O)ccc1O` was tested. Which pIC50 (MCF7) did it give?
A: < 5.00

Q: And the pIC50 (MDA-MB-231)?
A: < 5.00

Reference: ChEMBL document CHEMBL3779875, “Cytotoxic Evaluation against Breast Cancer Cells of Isoliquiritigenin Analogues from Spatholobus suberectus and Their Synthetic Derivatives” (J Nat Prod, 2016)
